The values that follow come from patent publication US20030050247A1, “Chemically-modified peptides, compositions, and methods of production and use” (priority 2000, published 2003).

Data set [1] concerns Aeromonas. Conditions: 18 h.
In data set [2] the test system is Desulfovibrio desulfuricans (ATCC 7757).
Data set [3] relates to X. maltophila. Description: Antimicrobial assay, bacterial paper mill isolates. The data set is classed as cell-based, Xanthomonas maltophila. Conditions: paper mill isolate; TGE medium; 37° C.
The test system of data set [4] is Bacillus. Description: Antimicrobial assay, bacterial cooling tower isolates. To be noted: cooling tower isolate; TGE; 18 hr at 35° C. The data set is classed as cell-based.
The test system of data set [5] is C. acidivorans. Description: Antimicrobial assay, bacterial paper mill isolates. Format: cell-based, Comamonas acidivorans. Conditions: paper mill isolate; TGE medium; 30° C.
The test system of data set [6] is E. cloacae. Description: Antimicrobial assay, bacterial paper mill isolates. The data set is classed as cell-based, Enterobacter cloacae. To be noted: paper mill isolate; TGE medium; 30° C.
The subject of data set [7] is P. aeruginosa. Description: Antimicrobial assay, bacterial paper mill isolates. Format: cell-based, Pseudomonas aeruginosa. Conditions: paper mill isolate; TGE medium; 30° C.
The subject of data set [8] is K. pneumoniae and P. aeruginosa. Description: Antimicrobial assay (MIC, growth inhibited by >90%), Examples 2 and 3. Conditions: for efficacy (in words): Example 3, second octyl group, compared to the -NH2 peptides, Trp replaced.
Data set [9] relates to Salmonella typhimurium and Clostridium botulinum. Format: cell-based. To be noted: food preservative; Example 16.
Data set [10] concerns E. coli. Description: Antimicrobial activity of peptide-containing fiber (textiles). To be noted: Example 17.
The test system of data set [11] is Aspergillus niger (ATCC 16888). Conditions: 22 h at 30° C.
Data set [12] is described as follows: in vitro. Conditions: Vero cells (ATCC CCL81), non-infected.

≈ marks a conversion by molar mass, not a printed value. Like-named read-outs stand apart in the source and are kept apart here. The star is where a group is joined. Octanoyl = CCCCCCCC(=O)*

As for `CCCCCCCCNC(=O)[C@H](CCCNC(=N)N)NC(=O)CCCCCCC` [Octanoyl-R-NH-octyl, Octanoyl-Arg-NH-octyl], the MIC (in general, the smallest concentration in the dilution series that meets the test's criterion for growth inhibition) is 62.5 µg/mL (≈ 152 µM) in [1]; 62.5 to 125 µg/mL in data set [2]; “≦5 μg/ml” in data set [3]; 15.6 µg/mL (≈ 37.9 µM) in data set [4]; more than 313 µg/mL in data set [5]; more than 313 µg/mL in data set [6]. Further, in data set [7], the minimal inhibitory concentration (MIC) entry is on record as “≦10 μg/ml”.
Take Octanoyl-Arg-Trp-NH2: the “peptide efficacy (MIC values, in words)” value in data set [8] (Example 2, acyl chain length and amino acid composition) was “greatest activity”. Besides, the MIC entry in data set [9] and in data set [10] was “≦ 15 μg/ml” each time.
Take Octanoyl-Arg-Tyr-NH-octyl: the “efficacy (in words)” value in data set [8] is given as “enhanced efficacy”.
For Octanoyl-Arg-Cys-NH-octyl, the MIC entry in data set [9] was “≦ 15 μg/ml”.
As for Octanoyl-Lys-Arg-NH-octyl, the MIC result in data set [9] was “≦ 4 μg/ml”.
For Octanoyl-Arg-Ala-NH-octyl, the MIC result in [9] was “≦ 15 μg/ml”.
As to `CCCCCCCCCNC(=O)[C@H](CCCNC(=N)N)NC(=O)CCCCCCCC` [Nonanoyl-Arg-NH-nonyl], the Growth was inhibited in [11] (1 μg/ml of peptide) is recorded as 43%; in [11] (7.8 μg/ml) it was 83%; in data set [11] (concentrations as low as 15.6 μg/ml), 98%. Also, the minimal inhibitory concentration (MIC) result in data set [9] is “≦ 4 μg/ml”.
In the case of Nonanoyl-Arg-Arg-NH-nonyl, the MIC entry in [10] is on record as “≦ 2 μg/ml”.
Turning to Decanoyl-Arg-NH-decyl, in data set [10], the MIC entry is reported as “≦ 15 μg/ml”.
For Octanoyl-Arg-Phe-NH-octyl, in [8], the “efficacy (in words)” value was “enhanced efficacy”. The MIC entry in data set [9] is “≦ 8 μg/ml”.
As to Octanoyl-Arg-Arg-Arg-NH-octyl, the MIC entry in data set [10] is on record as “≦ 8 μg/ml”.
The same measure, in the same setting: the result for “Octanoyl-Arg-Phe-Phe-Arg-NH-octyl (RFFR; HELM PEPTIDE1{[CCCCCCCC(=O)[*:2]].R.F.F.R.[CCCCCCCCN[*:1]]}$$$$V2.0; SMILES CCCCCCCCNC(=O)[C@H](CCCNC(=N)N)NC(=O)[C@H](Cc1ccccc1)NC(=O)[C@H](Cc1ccccc1)NC(=O)[C@H](CCCNC(=N)N)NC(=O)CCCCCCC)” reads “≦ 4 μg/ml”.
Regarding Octanoyl-Arg-Trp-Phe-NH2, the minimum inhibitory concentration (MIC) entry in data set [9] and in [10] was “≦ 15 μg/ml” in each case.
In the case of `CCCCCCCCNC(=O)[C@H](CCCNC(=N)N)NC(=O)[C@H](CCCNC(=N)N)NC(=O)CCCCCCC` [Octanoyl-Arg-Arg-NH-octyl], the viability (usually the share of living cells, or the viability signal relative to a control) at 125 ppm in data set [12] came to 59%.
